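Interpolation was linear, between the two tested concentrations surrounding the appropriate level; five concentrations were tested over 48 hours in 96-well plates. At the GI50, growth is halved. TGI: total growth inhibition.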
Columns and labels:
Assay in all cases: growth of human tumour cells (NCI), 48 h
786-0 renal = system: 786-0 renal
A498 renal = system: A498 renal
A549 NSCLC = system: A549 NSCLC
ACHN renal = system: ACHN renal
BT-549 breast = system: BT-549 breast
CAKI-1 renal = system: CAKI-1 renal
CCRF-CEM leukemia = system: CCRF-CEM leukemia
COLO 205 colon = system: COLO 205 colon
DU-145 prostate = system: DU-145 prostate
EKVX NSCLC = system: EKVX NSCLC
HCC-2998 colon = system: HCC-2998 colon
HCT-116 colon = system: HCT-116 colon
HCT-15 colon = system: HCT-15 colon
HL-60(TB) leukemia = system: HL-60(TB) leukemia
HOP-62 NSCLC = system: HOP-62 NSCLC
HOP-92 NSCLC = system: HOP-92 NSCLC
HS 578T breast = system: HS 578T breast
HT29 colon = system: HT29 colon
IGROV1 ovarian = system: IGROV1 ovarian
K-562 leukemia = system: K-562 leukemia
KM12 colon = system: KM12 colon
LOX IMVI melanoma = system: LOX IMVI melanoma
M14 melanoma = system: M14 melanoma
MALME-3M melanoma = system: MALME-3M melanoma
MCF7 breast = system: MCF7 breast
MDA-MB-231 breast = system: MDA-MB-231 breast
MDA-MB-435 = system: MDA-MB-435
MDA-MB-468 breast = system: MDA-MB-468 breast
MOLT-4 leukemia = system: MOLT-4 leukemia
NCI-H226 lung = system: NCI-H226 lung
NCI-H23 lung = system: NCI-H23 lung
NCI-H460 lung = system: NCI-H460 lung
NCI-H522 lung = system: NCI-H522 lung
NCI/ADR-RES ovarian = system: NCI/ADR-RES ovarian
OVCAR-3 ovarian = system: OVCAR-3 ovarian
OVCAR-4 ovarian = system: OVCAR-4 ovarian
OVCAR-5 ovarian = system: OVCAR-5 ovarian
OVCAR-8 ovarian = system: OVCAR-8 ovarian
PC-3 prostate = system: PC-3 prostate
RPMI-8226 leukemia = system: RPMI-8226 leukemia
RXF 393 renal = system: RXF 393 renal
SF-268 CNS = system: SF-268 CNS
SF-295 CNS = system: SF-295 CNS
SF-539 CNS = system: SF-539 CNS
SK-MEL-2 melanoma = system: SK-MEL-2 melanoma
SK-MEL-28 melanoma = system: SK-MEL-28 melanoma
SK-MEL-5 melanoma = system: SK-MEL-5 melanoma
SK-OV-3 ovarian = system: SK-OV-3 ovarian
SN12C renal = system: SN12C renal
SNB-19 CNS = system: SNB-19 CNS
SNB-75 CNS = system: SNB-75 CNS
SR leukemia = system: SR leukemia
SW-620 colon = system: SW-620 colon
T-47D breast = system: T-47D breast
TK-10 renal = system: TK-10 renal
U251 CNS = system: U251 CNS
UACC-257 melanoma = system: UACC-257 melanoma
UACC-62 melanoma = system: UACC-62 melanoma
UO-31 renal = system: UO-31 renal

## COc1cc2c(c(OC)c1OC)C(=O)CC(c1cccc(NC(=O)c3cc(NC(=O)[C@H](C)N)ccc3Cl)c1)O2 (some centres undefined)
786-0 renal
  GI50: 19.1 µM
  TGI: 36.7 µM
A498 renal
  GI50: 26 µM
  TGI: 90.5 µM
A549 NSCLC
  GI50: 15.9 µM
  TGI: 33.3 µM
ACHN renal
  GI50: 15.9 µM
  TGI: 31 µM
BT-549 breast
  GI50: 15 µM
  TGI: 32 µM
CAKI-1 renal
  GI50: 32.7 µM
  TGI: > 100 µM
CCRF-CEM leukemia
  GI50: 18.5 µM
  TGI: 65 µM
COLO 205 colon
  GI50: 17.1 µM
  TGI: 33.2 µM
DU-145 prostate
  GI50: 17.5 µM
  TGI: 34.5 µM
EKVX NSCLC
  GI50: 17.2 µM
  TGI: 35 µM
HCC-2998 colon
  GI50: 16.9 µM
  TGI: 31.3 µM
HCT-116 colon
  GI50: 17.5 µM
  TGI: 35.6 µM
HCT-15 colon
  GI50: 12 µM
  TGI: 26.9 µM
HL-60(TB) leukemia
  GI50: 18.8 µM
  TGI: 37.5 µM
HOP-62 NSCLC
  GI50: 15.1 µM
  TGI: 30.6 µM
HOP-92 NSCLC
  GI50: 14.5 µM
  TGI: 48.9 µM
HS 578T breast
  GI50: 20 µM
  TGI: 59.3 µM
HT29 colon
  GI50: 18.6 µM
  TGI: 37.2 µM
IGROV1 ovarian
  GI50: 16.6 µM
  TGI: 32.9 µM
K-562 leukemia
  GI50: 7.31 µM
  TGI: 91.9 µM
KM12 colon
  GI50: 19.3 µM
  TGI: 37.9 µM
LOX IMVI melanoma
  GI50: 14.5 µM
  TGI: 29.6 µM
M14 melanoma
  GI50: 15.5 µM
  TGI: 32.6 µM
MALME-3M melanoma
  GI50: 14.2 µM
  TGI: 27.7 µM
MCF7 breast
  GI50: 12.9 µM
  TGI: 26.8 µM
MDA-MB-231 breast
  GI50: 14.6 µM
  TGI: 28.5 µM
MDA-MB-435
  GI50: 7.81 µM
  TGI: 21.4 µM
MDA-MB-468 breast
  GI50: 13.5 µM
  TGI: 28.5 µM
MOLT-4 leukemia
  GI50: 11 µM
  TGI: 34.6 µM
NCI-H226 lung
  GI50: 16.8 µM
  TGI: 38.6 µM
NCI-H23 lung
  GI50: 15.6 µM
  TGI: 31.2 µM
NCI-H460 lung
  GI50: 15.3 µM
  TGI: 30.6 µM
NCI-H522 lung
  GI50: 11.3 µM
  TGI: 26 µM
NCI/ADR-RES ovarian
  GI50: 16.2 µM
  TGI: 47 µM
OVCAR-3 ovarian
  GI50: 17.5 µM
  TGI: 46.7 µM
OVCAR-4 ovarian
  GI50: 15.6 µM
  TGI: 47 µM
OVCAR-5 ovarian
  GI50: 18.3 µM
  TGI: 34.6 µM
OVCAR-8 ovarian
  GI50: 16.1 µM
  TGI: 41.7 µM
PC-3 prostate
  GI50: 17.2 µM
  TGI: 69.5 µM
RPMI-8226 leukemia
  GI50: 7.29 µM
  TGI: 51.7 µM
RXF 393 renal
  GI50: 18.6 µM
  TGI: 37.1 µM
SF-268 CNS
  GI50: 18 µM
  TGI: 42.8 µM
SF-295 CNS
  GI50: 16.3 µM
  TGI: 29.9 µM
SF-539 CNS
  GI50: 15.5 µM
  TGI: 28.8 µM
SK-MEL-2 melanoma
  GI50: 14.8 µM
  TGI: 33.2 µM
SK-MEL-28 melanoma
  GI50: 16.6 µM
  TGI: 30.2 µM
SK-MEL-5 melanoma
  GI50: 15.5 µM
  TGI: 29.4 µM
SK-OV-3 ovarian
  GI50: 18.3 µM
  TGI: 42.2 µM
SN12C renal
  GI50: 14.1 µM
  TGI: 30.9 µM
SNB-19 CNS
  GI50: 15.8 µM
  TGI: 29.2 µM
SNB-75 CNS
  GI50: 13.3 µM
  TGI: 65.1 µM
SR leukemia
  GI50: 5.45 µM
  TGI: 39.2 µM
SW-620 colon
  GI50: 15.7 µM
  TGI: 30.2 µM
T-47D breast
  GI50: 8.07 µM
  TGI: 29 µM
TK-10 renal
  GI50: 19.8 µM
  TGI: 42.7 µM
U251 CNS
  GI50: 13.9 µM
  TGI: 28 µM
UACC-257 melanoma
  GI50: 14.4 µM
  TGI: 29.5 µM
UACC-62 melanoma
  GI50: 12.3 µM
  TGI: 24.9 µM
UO-31 renal
  GI50: 12 µM
  TGI: 24.7 µM

## Cc1oc(-c2ccccc2)nc1CN[C@@H]1C[C@@H]2C[C@H]([C@H]1C)C2(C)C
786-0 renal
  GI50: 5.64 µM
  TGI: 21.1 µM
A498 renal
  GI50: 13.5 µM
  TGI: 26.8 µM
A549 NSCLC
  GI50: 14 µM
  TGI: 33.6 µM
ACHN renal
  GI50: 13.7 µM
  TGI: 26.5 µM
BT-549 breast
  GI50: 4.94 µM
  TGI: 19.1 µM
CAKI-1 renal
  GI50: 13.3 µM
  TGI: 26.1 µM
CCRF-CEM leukemia
  GI50: 18.9 µM
  TGI: 48.6 µM
COLO 205 colon
  GI50: 2.11 µM
  TGI: 5.3 µM
DU-145 prostate
  GI50: 10.1 µM
  TGI: 21.8 µM
EKVX NSCLC
  GI50: 11.2 µM
  TGI: 23.3 µM
HCC-2998 colon
  GI50: 4.22 µM
  TGI: 16.6 µM
HCT-116 colon
  GI50: 4.3 µM
  TGI: 18.3 µM
HCT-15 colon
  GI50: 3.85 µM
  TGI: 15.5 µM
HL-60(TB) leukemia
  GI50: 18 µM
  TGI: 37.7 µM
HOP-62 NSCLC
  GI50: 14.2 µM
  TGI: 32.4 µM
HOP-92 NSCLC
  GI50: 1.49 µM
  TGI: 12.6 µM
HS 578T breast
  GI50: 11.9 µM
  TGI: 30.5 µM
HT29 colon
  GI50: 3.39 µM
  TGI: 15 µM
IGROV1 ovarian
  GI50: 10.1 µM
  TGI: 22.1 µM
K-562 leukemia
  GI50: 3.63 µM
  TGI: > 100 µM
KM12 colon
  GI50: 9.49 µM
  TGI: 21.8 µM
LOX IMVI melanoma
  GI50: 5.17 µM
  TGI: 18.1 µM
M14 melanoma
  GI50: 2.21 µM
  TGI: 5.78 µM
MALME-3M melanoma
  GI50: 2.87 µM
  TGI: 13.6 µM
MCF7 breast
  GI50: 7.06 µM
  TGI: 21.4 µM
MDA-MB-231 breast
  GI50: 4.56 µM
  TGI: 16.9 µM
MDA-MB-435
  GI50: 13.3 µM
  TGI: 26.5 µM
MDA-MB-468 breast
  GI50: 2.13 µM
  TGI: 8.29 µM
MOLT-4 leukemia
  GI50: 16.6 µM
  TGI: 45.9 µM
NCI-H226 lung
  GI50: 8.99 µM
  TGI: 25 µM
NCI-H23 lung
  GI50: 12.8 µM
  TGI: 25.9 µM
NCI-H460 lung
  GI50: 6.32 µM
  TGI: 20.3 µM
NCI-H522 lung
  GI50: 12.7 µM
  TGI: 28.4 µM
NCI/ADR-RES ovarian
  GI50: 12.7 µM
  TGI: 25.5 µM
OVCAR-3 ovarian
  GI50: 12.7 µM
  TGI: 25.6 µM
OVCAR-4 ovarian
  GI50: 11.4 µM
  TGI: 25.8 µM
OVCAR-5 ovarian
  GI50: 7.9 µM
  TGI: 20.6 µM
OVCAR-8 ovarian
  GI50: 14.1 µM
  TGI: 31.8 µM
PC-3 prostate
  GI50: 7.17 µM
  TGI: 23.1 µM
RPMI-8226 leukemia
  GI50: 3.82 µM
  TGI: 19.2 µM
SF-268 CNS
  GI50: 11.6 µM
  TGI: 25.7 µM
SF-295 CNS
  GI50: 15.6 µM
  TGI: 29.1 µM
SF-539 CNS
  GI50: 12.5 µM
  TGI: 25 µM
SK-MEL-2 melanoma
  GI50: 14.5 µM
  TGI: 28.4 µM
SK-MEL-28 melanoma
  GI50: 7.59 µM
  TGI: 20.3 µM
SK-MEL-5 melanoma
  GI50: 3.32 µM
  TGI: 11.9 µM
SK-OV-3 ovarian
  GI50: 16.8 µM
  TGI: 32.3 µM
SN12C renal
  GI50: 10.5 µM
  TGI: 22.5 µM
SNB-19 CNS
  GI50: 14.2 µM
  TGI: 27.3 µM
SNB-75 CNS
  GI50: 13.2 µM
  TGI: 26.6 µM
SR leukemia
  GI50: 10.6 µM
  TGI: 36.7 µM
SW-620 colon
  GI50: 11.4 µM
  TGI: 24.5 µM
T-47D breast
  GI50: 4.42 µM
  TGI: 21.4 µM
TK-10 renal
  GI50: 15.4 µM
  TGI: 31.5 µM
U251 CNS
  GI50: 7.61 µM
  TGI: 22.8 µM
UACC-257 melanoma
  GI50: 7.95 µM
  TGI: 21.4 µM
UACC-62 melanoma
  GI50: 12.5 µM
  TGI: 25 µM
UO-31 renal
  GI50: 4.65 µM
  TGI: 18.8 µM

— PubChem BioAssay (NCI)
